Results: patent US10718006B2, “Methods for detecting beta-lactamase-producing bacteria” (priority 2015, dated 2020)

Legend:
[1] = test system: ESBL+ E. coli strain; experiment: ESBL+ E. coli cultured with cefotaxime with or without clavulanate potassium; format: cell-based
Description: FIG. 4: Cyclic voltammograms (v=50 mV·s^−1) recorded with a screen-printed sensor for the E. coli strain ESBL^+ cultured in a culture medium containing only 4 μg·mL^−1 of cefotaxime (A) or supplemented with 10 μg·mL^−1 of clavulanate potassium, then centrifuged (1 mL; 7000 g; 10 min) before a step of incubation of the pellet with 50 μL in a 500-μM solution of nitrocefin in PBS for 10 min.
Since the hyperproduced cephalosporinases and the carbapenemases can also hydrolyse cefotaxime, the bacteria producing these enzymes can also give a positive response in the presence of cefotaxime. In order to distinguish the bacteria producing extended-spectrum beta-lactamases and the bacteria producing hyperproduced cephalosporinases and carbapenemases, the bacteria were cultured simultaneously in two culture media, one containing cefotaxime as antibiotic, the other additionally containing clavulanate potassium as inhibitor of ESBLs. After recovering the bacteria, the bacterial pellets were incubated with nitrocefin as substrate.

[2] = test system: E. coli strains ESBL+ (MIAE6690) and ESBL− (K12); experiment: Optical density of E. coli strains cultured with cefotaxime; format: cell-based
[3] = Cyclic voltammetry of nitrocefin and its form hydrolyzed by ESBL; format: physicochemical; settings: screen-printed carbon electrodes; for peak of irreversible anodic oxidation (a1): PBS pH 7.0
Source text: Each sensor consists of the working electrode and a counter-electrode. The working area of the sensor (7.07 mm^2) is delimited with an adhesive ring, which also allows the electrochemical cell to be defined. For carrying out amperometric measurement, the sensor is inserted in a connector (Dropsens) connected to the potentiostat, and then a 20-μL drop of the solution to be analyzed is deposited on the surface of the sensor. After immersing a silver wire coated with a silver chloride precipitate (Ag/AgCl), which constitutes the reference electrode, the measurements are carried out by cyclic voltammetry (v=50 mV·s^−1) at ambient temperature.
5 μL of ESBL solution is put in a polypropylene tube containing 45 μL of 0.5 mM nitrocefin solution in phosphate buffer (PBS; 100 mM; pH=7.0). After a step of incubation for 10 minutes at ambient temperature in the dark, 20 μL of the mixture is taken and transferred onto the surface of the screen-printed carbon sensor. A reference electrode (Ag/AgCl) is then immersed in the 20 μL of solution previously deposited, and the cyclic voltammetry measurements are carried out by proceeding as follows: potential scanning between −0.4 V and 1.2 V at a rate of 50 mV·s^−1.
The oxidation peak appearing at about +0.3 V results from hydrolysis of the beta-lactam ring of nitrocefin and may be selected as the analytical response for identifying beta-lactamases in a sample.
Nitrocefin was hydrolyzed by an extended-spectrum beta-lactamase in an abundant quantity. The voltammetric behaviour of nitrocefin (S) and of its hydrolyzed form (P) was investigated by cyclic voltammetry using screen-printed electrodes based on carbon. Nitrocefin and hydrolyzed nitrocefin both have a peak of irreversible anodic oxidation (a1) at about +1.0 V vs. Ag/AgCl. This peak may be attributed to oxidation of the thiol group in the dihydrothiazine group or to other functions specific to the cephalosporin derivatives. […]

[4] = test system: E. coli strains ESBL+ (MIAE6690) and ESBL− (K12); experiment: Voltammetric detection of ESBL-producing E. coli with nitrocefin; format: cell-based; settings: pellet incubated 10 min with 500 μM nitrocefin
Description: Then 1 mL of each bacterial suspension is transferred to a polypropylene tube and centrifuged at 7000 g for 10 min. After removing the supernatant, a volume of 50 μL of nitrocefin solution (0.5 mM in PBS) is put in the tube and incubated with the bacterial pellet for 10 min at ambient temperature in the dark. The liquid is then aspirated and transferred onto the screen-printed sensor to carry out the voltammetric measurement as stated in section 1.3.
To evaluate the capacity of the voltammetric method for detecting the ESBL-producing bacteria, two strains of E. coli with a well-characterized genotype were selected, one being a producer of an ESBL (ESBL^+) and the other not producing ESBL (ESBL^−). First the two strains are cultured in LB medium containing 4 μg·mL^−1 of cefotaxime. After the centrifugation step, the respective bacterial pellets of these two strains are incubated with nitrocefin as substrate. […] The culture medium supplemented with cefotaxime and the medium without antibiotic were also subjected to voltammetric measurement. No specific signal is observed in the potential range [0.1-0.6 V vs. Ag/AgCl] for these two media, which confirms that neither the LB culture medium, nor cefotaxime interferes with voltammetric detection.

For `CO/N=C(\C(=O)N[C@@H]1C(=O)N2C(C(=O)O)=C(COC(C)=O)CS[C@H]12)c1csc(N)n1` [cefotaxime], the “E. coli count on selective medium” value ([1]; culture with cefotaxime without inhibitor) was 1.8×10^8 CFU·mL^−1, the optical density ([2]; ESBL+ E. coli strain cultured in LB with 4 μg·mL^−1 cefotaxime) was 0.934 and the optical density ([2]; ESBL− E. coli strain cultured in LB with 4 μg·mL^−1 cefotaxime) was 0.002.
With `O=C(O)[C@H]1/C(=C/CO)O[C@@H]2CC(=O)N21` [clavulanate potassium] the “anodic peak resulting from hydrolysis of nitrocefin” value ([1]; ESBL+ strain cultured with 4 μg·mL^−1 cefotaxime and 10 μg·mL^−1 clavulanate potassium) was “no signal was recorded” and the “E. coli count on selective medium” value ([1]; culture with cefotaxime supplemented with an inhibitor (clavulanate potassium)) was 80 CFU·mL^−1.
In the case of `O=C(Cc1cccs1)N[C@@H]1C(=O)N2C(C(=O)O)=C(/C=C/c3ccc([N+](=O)[O-])cc3[N+](=O)[O-])CS[C@H]12` [nitrocefin], the “peak of irreversible anodic oxidation (a1)” value [3] is reported as “about +1.0 V vs. Ag/AgCl”, the “anodic peak associated with hydrolysis of the β-lactam ring of nitrocefin” value ([4]; ESBL+ E. coli strain) is reported as “about +0.4 V vs. Ag/AgCl” and the “anodic peak associated with hydrolysis of the β-lactam ring of nitrocefin” value ([4]; ESBL− E. coli strain) is reported as “no peak is recorded”.
For `O=C(Cc1cccs1)NC(C(=O)O)C1NC(C(=O)O)=C(C=Cc2ccc([N+](=O)[O-])cc2[N+](=O)[O-])CS1` (stereo not shown) [hydrolyzed nitrocefin], the “peak of irreversible anodic oxidation (a1)” value [3] was “about +1.0 V vs. Ag/AgCl” and the “peak of irreversible anodic oxidation (a2)” value ([3]; PBS pH 7.0, nitrocefin hydrolyzed by ESBL) was “about +0.3 V”.
